{
  "source": "paper PMC3551756",
  "about": "“HIV-1 Fusion Is Blocked through Binding of GB Virus C E2D Peptides to the HIV-1 gp41 Disulfide Loop” (PLoS ONE, 2013)",
  "key": {"[1]": {"biological_target": "recombinant HIV-1 gp41MN (truncated gp41 ectodomain) (HIV-1 (strain MN))", "test": "ELISA; competitive: gp41MN immobilised; E2_(340)-Fc at constant 5 µg/ml with increasing amounts of peptide; bound E2_(340)-Fc detected with anti-human IgG peroxidase antibody"}, "[2]": {"tested_on": "gp120/CCR5 interaction", "assay_type": "binding, HIV-1", "conditions": "293T cells expressing CCR5; sCD4 added; peptides 0.2 mM, E2_340-Fc 0.6 µM; 1 h 37°C; normalized to Hsp90", "experimental": "Briefly, 293T cells were transiently transfected with either pCD4 or pCCR5 expression plasmids. Verification of expression was performed 2 days after transfection via flow cytometry. After 2 days of cultivation, the cells were resuspended in binding buffer (50 mM HEPES, 5 mM MgCl2, 1 mM CaCl2, 5% BSA, 0.1 mM NaN3, pH 7.5). […] After incubation for 1 h at 37°C, cells were washed with cold PBS and lysed in Triton X-100 and Tween-20 containing buffer. Lysates were separated by a 5% SDS-PAGE and verified with monoclonal gp120 antibody F425 B4a1 (NIH AIDS Research and Reference Reagent Program) or with sheep α-HIV-1-gp120 (Aalto Bio Reagents Ltd.) in Western Blot analyses. HIV-1 gp120 (5 ng) was used as a standard.\nIn a related approach, the effect of E2 peptides or intact E2 protein on the interaction between gp120 and the coreceptors CCR5 and CXCR4 expressed on cells was tested by immunoblotting. To ensure efficient binding of gp120 to the coreceptors, soluble CD4 (sCD4) was added simultaneously.\nSoluble HIV-1 gp120 was added to the CD4-, CCR5-, or CXCR4-expressing cells and binding was investigated by separating the cell lysates on SDS-PAGE and visualized by performing Western Blot analyses."}, "[3]": {"tested_on": "HIV-1 NL4-3 / TZM-bl cells", "test": "HIV-1 virion-based (BlaM-Vpr) virus-cell fusion assay", "conditions": "standard (pre-CD4 binding) and TAS (post-CD4 binding, 23°C 1 h then 37°C 2 hr); E2 peptides 20 µM, AMD-3100 10 µM, 2F5 0.5 µg/ml, b12 and B4 0.3 µg/ml; five independent experiments each in triplicate", "experimental": "HIV-1 virions containing the BlaM-Vpr chimera were produced as previously described [33]. Briefly, 293T cells were co-transfected with pNL4-3 proviral DNA, pCMV-BlaM-Vpr, and pAdVAntage vectors. After 2 days of cultivation, the virus-containing supernatant was centrifuged for 10 min at 300×g to remove cellular debris. The HIV-1 virion-containing supernatant was overlaid onto a 20% sucrose cushion and ultracentrifuged at 35000×g at 4°C for 90 min. The resulting pellet was resuspended in medium and aliquots were frozen at −80°C until usage.\nThe virion-based fusion assay was performed essentially as described elsewhere [41]. Briefly, 5×10^4 TZM-bl cells were infected with sucrose-purified HIV-1 NL4-3 virions containing BlaM-Vpr (5 ng p24-Gag per approach). Under temperature-arrested state (TAS) conditions, binding of the HI virions to target cells was allowed at low temperature via spinning inoculation, for which virions were added to cells and centrifuged at 2095×g, 4°C for 30 min. […] BlaM activity was quantified using a fluorescence plate reader. The extent of virus-cell fusion was determined from the ratio of blue (460 nm) and green (510 nm) emission upon exciting the cells at 405 nm.\nTo find out whether early or late steps of HIV-1 entry are affected by the E2 peptides, the E2 peptide activity was determined before and after gp120/CD4 engagement using the Vpr-β-lactamase (Vpr-BlaM) enzyme-based virus-cell fusion assay under standard (pre-CD4 binding) and temperature-arrested state (TAS; post-CD4 binding) conditions, respectively.\nThe HIV-inhibitory activity of known HIV-1 entry inhibitors or respective E2 peptides was determined using a virus-cell fusion assay under standard (respective inhibitors were added simultaneously to HIV NL4-3BlaM-Vpr inoculum: pre-CD4 binding) or under TAS (temperature-arrested state) conditions (respective inhibitors were added at low temperature of 23°C for 1 h after spin-inoculation [4°C] and removal of unbound HIV-1 particles: post-CD4 binding). […] Percentages were calculated in relation to mock-treated cells. […]"}, "[4]": {"tested_on": "CD4", "test": "CD4 surface expression, flow cytometry", "assay_type": "cell-based, human", "conditions": "PBMC and TZM-bl cells; E2 peptides 25 µM, PMA 40 ng/ml; 6 hr; FACS; RTCN vs mock; average of two independent experiments each in triplicate", "description": "(§1) PHA/IL-2-stimulated PBMC or TZM-bl cells were incubated with E2 peptides (25 µM), phorbol 12-myristate 13-acetate (PMA; 40 ng/ml), SDF-1α (1 µg/ml) or RANTES (50 nM) for 6 hr. CD4, CXCR4 and CCR5 surface expression was analyzed by using standard FACS staining protocols. Cells were washed with PBS and incubated for 30 min at 4°C with PE-labeled antibodies (CD4 clone SK3, CXCR4 clone 12G5, and CCR5 clone 2D7, BD Biosciences, Germany). Subsequently, washed cells were resuspended in PBS and analyzed with a FACSCalibur™ flow cytometer (BD Biosciences, Germany).\n(§2) The non-HIV-1-inhibitory peptide P28 derived from the C-terminal part of E2 (residue 271 to 290), served as a negative control.\n(§3) CD4, CXCR4 and CCR5 expression on PBMC (A) and TZM-bl cells (B) after preincubation with E2 peptides were determined by flow cytometry analysis. […] Percentages illustrate the ratio-to-cell-negative (RTCN) values that were calculated from the percentage of positive cells and the fluorescence intensity of peptide-incubated cells compared to mock-incubated cells. Columns show average values ±SD of two independent experiments each performed in triplicate. *: p<0.05; **: p<0.01 (mock- vs. inhibitor-incubated cells)."}, "[5]": {"tested_on": "HIV-1 Env (NL4-3 gp160, X4env) on 293T cells", "test": "HIV-1 gp160 (X4env) binding of FITC-labeled E2 peptides, flow cytometry", "conditions": "FITC-labeled peptides 1 µM, sCD4 pretreated, 1 h 37°C, X4env- vs vector-transfected 293T cells; three independent experiments each in duplicate", "description": "293T cells were transiently transfected with an HIV-1 Env expression vector, coding for the CXCR4-tropic NL4-3 gp160 precursor (X4env) for surface expression of gp120-gp41 Env trimers or empty plasmid as control. After 2 days of cultivation, cells were incubated with 1 µg sCD4 and 1 µM FITC-conjugated E2 peptides for 1 h at 37°C respectively. Subsequently, cells were washed, resuspended in PBS, and analyzed by flow cytometry using a BD™ LSR II flow cytometer (Becton Dickinson Biosciences, Germany). Flow cytometer data were collected with BD FACSDiva™ and analyzed with FCS Express V3. In parallel, gp160 expression was determined by staining with HIV-1 gp120 mAbs (2G12 and 17b) and an anti-human IgG-FITC pAb (Dako, Germany).\nPreviously, we have shown that the target of the HIV-1-inhibitory E2 peptides is most likely located on the HIV-1 particle, rather than on the cell. The surface of the HIV-1 particle consists of a lipid bilayer with incorporated host cell proteins and a limited number of functional envelope (Env) trimers (on average 14±7). Therefore, we tested whether the HIV-1-inhibitory E2 peptides interact with trimeric HIV-1 Env proteins expressed on the surface of transfected cells. For this purpose, 293T cells were transiently transfected with an HIV-1 Env expression vector, coding for the gp160 precursor of the CXCR4-tropic NL4-3 envelope (X4env). Binding of FITC-labeled E2 peptides was monitored by flow cytometry.\nFigure 4 Recombinant E2_340-Fc protein and E2-derived peptides bind HIV-1 gp41. (A) 293T cells expressing NL4-3 envelope (X4env) or empty plasmid as control were incubated with sCD4 and FITC-conjugated E2 peptides, respectively. Peptide binding was analyzed by flow cytometry. Percentages illustrate the increase of cell binding to X4env-transfected cells. The increase is normalized to the background binding of E2 peptides to mock-transfected cells by calculating the RTCN value. […] (C) E2 peptides with increasing amounts were added to recombinant E2_340-Fc protein (at constant concentration) and then transferred to immobilized recombinant gp41MN."}, "[6]": {"tested_on": "CXCR4", "test": "CXCR4 surface expression, flow cytometry", "assay_type": "cell-based, human", "conditions": "PBMC and TZM-bl cells; E2 peptides 25 µM, SDF-1α 1 µg/ml; 6 hr; FACS; RTCN vs mock; average of two independent experiments each in triplicate", "description": "as §1, §2, §3"}, "[7]": {"biological_target": "E2_340-Fc / HIV-1 gp41MN interaction (Human immunodeficiency virus type 1 group M subtype B, UniProt P05877)", "assay_type": "binding", "conditions": "ELISA, immobilized gp41MN, E2_340-Fc constant (5 µg/ml), increasing peptide; three independent experiments each in duplicate", "experimental": "Flat-bottom, 96-well Microtest ELISA plates (Sarstedt, Germany) were coated overnight at 4°C with recombinant HIV-1 gp120 (0.5 µg/ml), gp41 (0.22 µg/ml) proteins, or with streptavidin (4 µg/ml) in coating buffer (0.1 M NaHCO3, 0.1 M Na2CO3, pH 9.87). Nonspecific binding was blocked (blocking buffer: 1% BSA, 0.1% Tween-20 in phosphate buffer, pH 7.2) for 1 h at room temperature, followed by washing steps (wash buffer: 0.1% Tween in phosphate buffer, pH 7.2). […] All plates were then incubated with recombinant E2_340-Fc or Fc protein in serial dilutions in sample buffer (phosphate buffer, pH 7.2) for 3 hr at room temperature. To perform the competitive ELISAs, the recombinant E2_340-Fc protein was adjusted at 5 µg/ml and the monoclonal gp41 antibodies (246-D, F240, T32, D50, 2F5, 4E10, Chessie 8 [all: NIH AIDS Research and Reference Reagent Program], and 5F3 [Polymun, Austria]) at 100 µM. After washing procedure, the plates were incubated for 1 h with polyclonal rabbit anti-human IgG peroxidase antibody (Dako, Germany) 1∶6000 in sample buffer and washed. Plates were developed with TMB peroxidase substrate solution (KPL, USA), or with OPD/H2O2 solution in the dark. Absorbances (ODs) were read at 450 or 492 nm, respectively, using a multi-channel photometer (ELISA-Reader AxSYM, Abbott Laboratory, USA).\nCompetitive binding of E2 and gp120 peptides (N35, N35s) with recombinant E2_340-Fc protein to immobilized recombinant gp41MN. Simultaneously to E2_340-Fc incubation peptides of E2 or gp120 were added with increasing amounts."}, "[8]": {"tested_on": "CCR5", "test": "CCR5 surface expression, flow cytometry", "assay_type": "cell-based, human", "conditions": "PBMC and TZM-bl cells; E2 peptides 25 µM, RANTES 50 nM; 6 hr; FACS; RTCN vs mock; average of two independent experiments each in triplicate", "description": "as §1, §2, §3"}, "[9]": {"tested_on": "HIV-1", "conditions": "ref [33]; cited from earlier work"}},
  "data": [
    {"molecule": "N35s, C54S variant of the HIV-1 gp120 N-terminus peptide N35 (from UniProt P04578 31-65)", "values": [
      {"measurement": "IC50", "setting": "[1]", "value": 4.6, "unit": "µM"}
    ]},
    {"molecule": "Maraviroc", "values": [
      {"measurement": "interference with gp120 binding to CCR5", "setting": "[2]", "value": "clear reduction in the gp120/CCR5"}
    ]},
    {"molecule": "c1cc(CN2CCCNCCNCCCNCC2)ccc1CN1CCCNCCNCCCNCC1", "note": "[AMD-3100, reference compound]", "values": [
      {"measurement": "inhibition of virus-cell fusion, standard versus TAS conditions", "setting": "[3]", "value": "act after CD4 engagement"}
    ]},
    {"molecule": "N35, HIV-1 gp120 N-terminus peptide (gp120 residue 31 to 65) (from UniProt P04578 31-65)", "values": [
      {"measurement": "IC50", "setting": "[1]", "value": 0.7, "unit": "µM"}
    ]},
    {"molecule": "Ac-TEVSEALGGAGLTGGFYEPL [P28]", "values": [
      {"measurement": "CD4 surface presentation", "setting": "[4]", "value": "no relevant effect on HIV-1 receptor presentation"},
      {"measurement": "binding to HIV-1 Env-expressing cells", "setting": "[5]", "value": "the increase of binding was not observed"},
      {"measurement": "CXCR4 surface presentation", "setting": "[6]", "value": "no relevant effect on HIV-1 receptor presentation"},
      {"measurement": "competition with E2_340-Fc for gp41 binding", "setting": "[7]", "value": "no effect"},
      {"measurement": "CCR5 surface presentation", "setting": "[8]", "value": "no relevant effect on HIV-1 receptor presentation"},
      {"measurement": "HIV-inhibitory activity (earlier work)", "setting": "[9]", "value": "non-HIV-1-inhibitory"}
    ]},
    {"molecule": "SDF-1α [reference compound]", "values": [
      {"measurement": "CXCR4 surface presentation", "setting": "[6]", "value": "down-regulation of the respective coreceptors"}
    ]},
    {"molecule": "Cc1ccc(-c2ccc3c(c2)C=C(C(=O)Nc2ccc(C[N+](C)(C)C4CCOCC4)cc2)CCC3)cc1.[Cl-]", "note": "[TAK-779]", "values": [
      {"measurement": "interference with gp120 binding to CCR5", "setting": "[2]", "value": "clear reduction in the gp120/CCR5"}
    ]},
    {"molecule": "CCCCCCCCCCCCCC(=O)O[C@@H]1[C@@H](C)[C@@]2(O)[C@@H](C=C(CO)C[C@]3(O)C(=O)C(C)=C[C@@H]23)[C@@H]2C(C)(C)[C@]12OC(C)=O", "note": "[PMA, phorbol 12-myristate 13-acetate, reference compound]", "values": [
      {"measurement": "CD4 surface presentation", "setting": "[4]", "value": "down-regulation of CD4"}
    ]},
    {"molecule": "GBV-C E2 peptide P6-2 (amino acids 45 to 64)", "values": [
      {"measurement": "IC50", "setting": "[1]", "value": 7, "unit": "µM"}
    ]},
    {"molecule": "RANTES: CCR5-ligand (protein, UniProt P13501 24-91, looked up) C-C motif chemokine 5: SPYSSDTTPCCFAYIARPLPRAHIKEYFYTSGKCSNPAVVFVTRKNRQVCANPEKKWVREYINSLEMS", "values": [
      {"measurement": "CCR5 surface presentation", "setting": "[8]", "value": "down-regulation of the respective coreceptors"}
    ]}
  ]
}
